Activity calls are given as the source filed them. The rule behind the calls is not given here.
Experiments:
LOX IMVI = test: Growth inhibition of human LOX IMVI cells assessed as reduction in cell viability; type: functional
A549 = test: Growth inhibition of human A549 cells assessed as reduction in cell viability; type: functional
ACHN = test: Growth inhibition of human ACHN cells assessed as reduction in cell viability; type: functional
U-251 = test: Growth inhibition of human U-251 cells assessed as reduction in cell viability; type: functional
DU-145 = test: Growth inhibition of human DU-145 cells assessed as reduction in cell viability; type: functional
MCF7 = test: Growth inhibition of human MCF7 cells assessed as reduction in cell viability; type: functional
MKN-28 = test: Growth inhibition of human MKN-28 cells assessed as reduction in cell viability; type: functional
[1] = target: T1, DNA topoisomerase 1 (Homo sapiens) (UniProt P11387); test: Inhibition of human DNA topoisomerase 1 assessed as reduction in pBR322 DNA relaxation at 20 to 100 uM in presence of ethidium bromide by agarose gel electrophoresis method; details: dose 20-100 µM
T1 sequence (whole entry): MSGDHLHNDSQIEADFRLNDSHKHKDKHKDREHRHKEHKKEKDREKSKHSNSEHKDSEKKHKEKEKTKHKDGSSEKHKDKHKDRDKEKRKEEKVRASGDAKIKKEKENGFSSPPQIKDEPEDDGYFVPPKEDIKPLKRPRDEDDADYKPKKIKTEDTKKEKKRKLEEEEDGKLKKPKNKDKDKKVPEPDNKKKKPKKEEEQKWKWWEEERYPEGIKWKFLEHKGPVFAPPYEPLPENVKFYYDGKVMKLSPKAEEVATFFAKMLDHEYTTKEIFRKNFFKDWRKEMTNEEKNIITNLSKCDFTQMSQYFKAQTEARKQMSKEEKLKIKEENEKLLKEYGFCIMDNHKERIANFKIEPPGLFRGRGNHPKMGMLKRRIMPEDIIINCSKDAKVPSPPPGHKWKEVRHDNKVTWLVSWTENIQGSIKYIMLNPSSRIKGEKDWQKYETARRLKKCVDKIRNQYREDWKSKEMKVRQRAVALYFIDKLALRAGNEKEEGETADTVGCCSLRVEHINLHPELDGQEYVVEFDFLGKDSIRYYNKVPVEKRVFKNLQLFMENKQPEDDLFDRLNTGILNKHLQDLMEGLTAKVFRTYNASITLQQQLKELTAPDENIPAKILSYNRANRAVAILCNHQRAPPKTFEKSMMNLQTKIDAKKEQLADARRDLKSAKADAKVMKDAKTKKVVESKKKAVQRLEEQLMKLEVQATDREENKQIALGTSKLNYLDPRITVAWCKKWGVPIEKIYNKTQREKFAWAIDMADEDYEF

SK-OV-3 = test: Growth inhibition of human SK-OV-3 cells assessed as reduction in cell viability; type: functional
HCT-116 = test: Growth inhibition of human HCT-116 cells assessed as reduction in cell viability; type: functional
[2] = target: T1, DNA topoisomerase 1 (Homo sapiens); test: Inhibition of human DNA topoisomerase 1 assessed as reduction in pBR322 DNA relaxation at 20 to 100 uM by agarose gel electrophoresis method; details: dose 20-100 µM

| Structure (SMILES) | GI50 (A549) [nM] | GI50 (ACHN) [nM] | GI50 (U-251) [nM] | GI50 (DU-145) [nM] | GI50 (MCF7) [nM] | GI50 (MKN-28) [nM] | inhibition [1] | GI50 (SK-OV-3) [nM] | GI50 (HCT-116) [nM] | inhibition [2] | GI50 (LOX IMVI) [nM] |
| --- | --- | --- | --- | --- | --- | --- | --- | --- | --- | --- | --- |
| COc1cc2c(cnc3c4ccc5cc(O)ccc5c4n(CCCCl)c23)cc1O | 447 | 32 | 26 | 32 | 105 | 316 | – | 537 | 115 | – | 25 |
| COc1cc2c(ccc3c4c(=O)oc5cc(O)c(OC)cc5c4n(C)c23)cc1O | 1.8 | < 1 | 1.3 | 2.5 | 9.6 | 33 | – | 9.4 | 8.8 | – | 2.6 |
| COc1cc2c(cnc3c4ccc5cc(O)ccc5c4n(CCCN4CCC(N5CCCCC5)CC4)c23)cc1O | 1550 | 1100 | 708 | 759 | 263 | 562 | – | 1820 | 309 | Active | 363 |
| COc1cc2c(cnc3c4ccc5cc(O)ccc5c4n(C)c23)cc1O | 631 | 257 | 123 | 282 | 437 | 437 | – | 759 | 200 | – | 178 |
| COc1cc2c(cnc3c4ccc5cc(O)ccc5c4n(CCN(C)C)c23)cc1O | 380 | 20 | < 10 | < 10 | 13 | 912 | Active | 380 | 65 | Active | < 10 |

Further lines, with some results ahead:

| GI50 (A549) [nM] | GI50 (ACHN) [nM] | GI50 (U-251) [nM] | GI50 (DU-145) [nM] | GI50 (MCF7) [nM] | GI50 (MKN-28) [nM] | inhibition [1] | GI50 (SK-OV-3) [nM] | GI50 (HCT-116) [nM] | inhibition [2] | Structure (SMILES) | GI50 (LOX IMVI) [nM] |
| --- | --- | --- | --- | --- | --- | --- | --- | --- | --- | --- | --- |
| 15800 | 331 | 38 | 141 | 40 | 1950 | inactive | 9550 | 324 | – | COc1cc2c(cnc3c4ccc5cc(O)ccc5c4n(CCCn4ccnc4)c23)cc1O | 44 |
| 49 | < 10 | < 10 | < 10 | < 10 | 19 | Active | 18 | < 10 | Active | COc1cc2c(cnc3c4ccc5cc(O)ccc5c4n(CCCN4CCOCC4)c23)cc1O | < 10 |
| 3090 | 37 | 145 | 62 | 66 | 3550 | Active | 1440 | 209 | – | COc1cc2c(cc1O)c[n+]([O-])c1c3ccc4cc(O)ccc4c3n(C)c21 | 50 |
